“Also recorded” adds a separate entry of the source.
Experiments:
[1] = tested on: differentiating monocyte-derived human dendritic cells; experiment: DNA microarray in differentiating monocyte-derived dendritic cells; assay type: cell-based
Procedure: The generation and transcriptional analysis of differentiating DCs were performed as described previously [Szeles L et al. 2010]. Microarray data were deposited into the Gene Expression Omnibus database under accession no. GSE48573.
The generation and analysis of differentiating DCs were performed as described previously [Szeles L et al. 2010] with minor modifications. Briefly, human monocytes were isolated from healthy volunteer's buffy coat, obtained with a Regional Ethical Board permit from the Regional Blood Bank and isolated by Ficoll gradient centrifugation followed by immunomagnetic cell separation, and were cultured in the presence of GM-CSF and IL-4. Differentiating DCs were stimulated 18 h after […] by various agonists for 12 h. The ligands were used in the following concentrations: 10 μM (R)-9CDHRA, 10 μM (S)-9CDHRA, 1 μM 9cisRA, 100 nM LG100268, 1 μM GW3965, 1 μM Rosiglitazone (RSG), 1 μM GW1516, 100 nM AM580. Experiments were performed in biological triplicates. Samples were processed and hybridized to Human Genome U133 Plus 2.0 Arrays. Data were analysed using to GeneSpring 12.6.1 software. In detail, normalization was performed using RMA summarization algorithm. […] Microarray data were deposited into the Gene Expression Omnibus database under accession no. GSE48573.

[2] = molecular target: T1, hRXRα LBD (Homo sapiens, UniProt P19793); experiment: ESI-MS in non-denaturing conditions, binding to RXR LBD; set-up: cDNAs encoding hRXRα LBD (223-462); His-tag (N); made in house; conditions: 5-fold molar excess of ligand
T1 sequence (P19793 223-462): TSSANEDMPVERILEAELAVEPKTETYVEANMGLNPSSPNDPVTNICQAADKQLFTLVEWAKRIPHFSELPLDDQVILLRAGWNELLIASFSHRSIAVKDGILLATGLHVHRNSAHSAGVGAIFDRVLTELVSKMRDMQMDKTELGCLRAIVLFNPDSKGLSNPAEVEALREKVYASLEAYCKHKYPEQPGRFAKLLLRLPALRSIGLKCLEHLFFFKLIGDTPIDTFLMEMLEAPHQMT
Procedure: (§1) cDNAs encoding hRXRα LBD (223-462), hRARα LBD (153-421), hRARBβ LBD (169-414) and hRARγ LBD (178-423) were cloned into pET28b vector to generate N-terminal Histag fusion proteins. Purification was carried out as previously described [Lippert W P et al. 2009, Osz J, et al. 2012], including a metal affinity chromatography and a gel filtration. For details of sample preparation and ESI-MS analyses see below.
cDNAs encoding hRXRαLBD (223-462), hRARαLBD (153-421), hRARβLBD (169-414) and hRARγ LBD (178-423) were cloned into pET28b vector to generate N-terminal His-tag fusion proteins. Purification was carried out as previously described [Lippert W P et al. 2009, Osz J, et al. 2012], including a metal affinity chromatography and a gel filtration. Prior to ESI-MS analysis, samples were desalted on Zeba Spin desalting columns (Pierce) in 150 mM ammonium acetate (pH 8.0). ESI-MS measurements were performed on an electrospray time-of-flight mass spectrometer (MicrOTOF, Bruker Daltonics). Purity and homogeneity of the proteins were verified by mass spectrometry in denaturing conditions (samples were diluted at 2 pmol/μl in a 1:1 water-acetonitrile mixture (v/v) acidified with 1% formic acid). The mass measurements of the noncovalent complexes were performed in ammonium acetate (200 mM; pH 8.0). Samples were diluted to 8 pmol/ml in the previous buffer and continuously infused into the ESI ion source at a flow rate of […] through a Harvard syringe pump (Harvard Apparatus model 11). A careful optimization of the interface parameters was performed to obtain the best sensitivity and spectrum quality without affecting the noncovalent complexes stability. In particular, the capillary exit (CE) ranged from 60 to 150 V with a vacuum interface pressure of 2.3 mbar and was set to 80 V. For ligand-interaction analysis, ligands were added to the proteins in a 5-fold molar excess.

[3] = tested on: hRARα, β and γ LBDs; experiment: ESI-MS in non-denaturing conditions, binding to RAR LBD isotypes; set-up: species or system human; conditions: 5-fold molar excess of ligand
Procedure: as §1
cDNAs encoding hRXRαLBD (223-462), hRARαLBD (153-421), hRARβLBD (169-414) and hRARγ LBD (178-423) were cloned into pET28b vector to generate N-terminal His-tag fusion proteins. Purification was carried out as previously described [Lippert W P et al. 2009, Osz J, et al. 2012], including a metal affinity chromatography and a gel filtration. Prior to ESI-MS analysis, samples were desalted on Zeba Spin desalting columns (Pierce) in 150 mM ammonium acetate (pH 8.0). ESI-MS measurements were performed on an electrospray time-of-flight mass spectrometer (MicrOTOF, Bruker Daltonics). Purity and homogeneity of the proteins were verified by mass spectrometry in denaturing conditions (samples were diluted at 2 pmol/μl in a 1:1 water-acetonitrile mixture (v/v) acidified with 1% formic acid). The mass measurements of the noncovalent complexes were performed in ammonium acetate (200 mM; pH 8.0). […]

[4] = tested on: C57BL/6N mice; experiment: Chronic social defeat stress model, forced swim test; assay type: in vivo, mouse; conditions: stressed mice, 10 mg/kg i.p. every second day of stress protocol; 10 mg/kg
Procedure: (§2) The forced swim paradigm was carried out between 1 pm and 4 pm in a 3-litre glass beaker half-filled with water at 22-23° C. (the water depth was 17 cm). All mice were tested only once in this task. To this end, each mouse was lowered gently into the water and the time of immobility was scored during a 6-minute testing period. The mouse was judged immobile when it floated in an upright position and made only small movements to keep its head above the water. After 6 min, the mouse was taken out of the water, left to dry under a red light lamp and returned to its home cage. The immobility scores of each animal were used as an index of despair behavior.
(§3) Social defeat stress procedure was a modified version of the protocol previously described (Berton, McClung et al. 2006). C57BL/6N mice were defeated chronically for 10 consecutive days. Every day they were exposed to the physical contact with an unfamiliar CD1 aggressor in its home cage for maximal interaction time of 5 minutes. After each session of physical stress, C57BL/6N and CD1 mice were separated by a perforated wall and maintained in sensory contact for 24 h. After the last session of stress, mice were transferred into new cages and housed separately throughout the behavioral tests period. C57BL/6N control mice, similarly to the experimental animals, were housed two per cage separated by a metal perforated wall. Every day, they were exposed to the physical contact for 5 minutes.
(§4) For behavioral analysis, 9CDHROL and 9CDHBC were dissolved in ethanol, and then mixed with sunflower oil, so that the final solution contained 3% ethanol. Vehicle treatments consisted of 3% ethanol solution in sunflower oil. For memory studies treatments with 9CDHRA were administered by intraperitoneal injections at volume/weight ratio 3 ml/kg at 7 am and 7 hours before the beginning of testing. For tests with animal model of chronic social defeat, different treatments were administered by intraperitoneal injections at volume/weight ratio 3 ml/kg at 10 mg/kg for each substance between 5-6 pm every second day of stress protocol immediately after the stress session starting from day 1 of the stress protocol.
as §2, with “paradigm (Dalvi and Lucki, 1999)” for “paradigm”, “2-litre” for “3-litre”
as §3, with “(Berton” for “(Berton, McClung”, “C57BL/6N control mice, similarly to the experimental animals, were housed two per cage separated by a metal perforated wall. Every day, they were exposed to the physical contact for 5 minutes.” left out

[5] = Mouse oral supplementation, retinoid levels in serum, brain and liver (LC-MS); assay type: in vivo; conditions: mice
[6] = tested on: oligodendrocytes cell line 158N; experiment: Metabolic conversion in mouse oligodendrocytes cell culture (LC-MS); assay type: in vitro ADME
Procedure: Normal immortalized oligodendrocytes cell line 158N was cultured as previously reported (Feutz et al., 2001). Expediently, cells were cultured in supplemented with 5% calf serum (Invitrogen, France). When cells attained 70% of confluency they were treated with 10^−2 M ethanol solution of one of the following compounds: 9CDHROL, 9CDHROL-acetate, 9CDHRA-ethyl ester. 9CDHRA and ethanol as controls, vehicle treatment. 18 h after treatment cells were collected in amber Eppendorf tubes and stored at −80° C. until analyses. Treatments and cell collection were carried out in light limited conditions to avoid photolysis of retinoids.
(§5) In a slight variant of the method, after reaching confluency of 80% cells were treated with 9CDHROL, 9CDH-retinyl ester (acetate, 9CDHROL-ES), 9CDHRA, 9CDH-retinoyl ester, (ethyl ester, 9CDHRA-ES), ATROL, 9CDHBC, 9CBC and ATBC at a concentration of 10^−6 M or ethanol at corresponding concentration was used as control vehicle treatment. Cells were harvested 18 hours later, centrifuged, weighted, frozen in liquid nitrogen and stored at −80° C. until analyses.
(§6) High performance liquid chromatography mass spectrometry (LC-MS) was carried out as described in Example 4.

[7] = tested on: C57BL/6N mice; experiment: Chronic social defeat stress model, sucrose preference test; assay type: in vivo, mouse; conditions: stressed mice, 10 mg/kg i.p. every second day of stress protocol; 10 mg/kg
Text: This task, designed to measure hedonic behaviors in mice is based on the palatable nature of sucrose observed in a number of mouse strains. On the first day of the test, sucrose-naive mice were placed in individual cages at 11 am and left there with water and food for habituation period. At 5 pm one water bottle was replaced with two bottles: one containing water and another 0.8% sucrose solution. Three hours later (8 pm) the bottles were weighed to measure liquid consumption and were replaced in cages until morning. The measures of an overnight consumption were then carried out for additional day to evaluate sucrose preference. Mice were not water deprived at any moment, in order to measure spontaneous sucrose preference and exclude any potential emotional confounds induced by stress of water deprivation. The sucrose preference was expressed as the percent of sucrose solution consumed with respect to total liquid consumption.
as §3
as §4, with “by intraperitoneal injections at volume/weight ratio 3 ml/kg at 10 mg/kg for each substance between 5-6 pm every second” left out
This task, designed to measure hedonic behavior in mice (Moreau, 1997), is based on the palatable nature of sucrose observed in a number of mouse strains. On the first day of the test, sucrose-naive mice were placed in individual cages at 11 am and left there with water and food for habituation period. At 5 pm one water bottle was replaced with two bottles: one containing water and another 0.8% sucrose solution. Three hours later (8 pm) the bottles were weighed to measure liquid consumption and were replaced in cages until morning. The measures of an overnight consumption were then carried out for additional day to evaluate sucrose preference. Mice were not water deprived at any moment, in order to measure spontaneous sucrose preference and exclude any potential emotional confounds induced by stress of water deprivation. The sucrose preference was expressed as the percent of sucrose solution consumed with respect to total liquid consumption.
Social defeat stress procedure was a modified version of the protocol previously described (Berton et al. 2006). C57BL/6N mice were defeated chronically for 10 consecutive days. […]

[8] = tested on: human oligodendrocytes cell cultures; experiment: Metabolic conversion in human oligodendrocytes cell culture (HPLC-MS); assay type: in vitro ADME
Procedure: as §5, §6
9CDHRA levels including standard deviation in human oligodendrocytes cultures were assessed using HPLC-MS analysis after control treatment using ethanol (CTRL), as well as ATROL treatment (ATROL), 9CBC treatments (9CBC), ATBC treatments (ATBC), 9CDHBC treatment (9CDHBC), 9CDHROL treatments (9CDHROL), 9CDHROL-ester treatments (9CDHROL-ES), 9CDHRA treatments (9CDHRA) or 9CDHRA-ester treatments (9CDHRA-ES), each with 10^−6M concentration and n=3 (FIG. 14D).

[9] = after column chromatography
[10] = per os 40 mg/kg, 11 h after treatment

| binding to RXR LBD in ESI-MS [2] | binding to RAR LBD isotypes in ESI-MS [3] | Structure (SMILES) | overlap in transcriptional changes with 9CRA [1] | expression of genes that are direct targets of RXR permissive heterodimers (LXR-RXR, PPAR-RXR) and RAR-RXR ([1]; 9CDHRA 10 μM, 9CRA 1 μM, LG268 100 nM, GW3965 1 μM, RSG 1 μM, GW1516 1 μM, AM580 100 nM) | immobility time in the forced swim test [4] | ATROL levels in mouse organs after treatment ([5]; oral gavage 40 mg/kg) | 9CDHRA levels in serum, brain and liver after treatment (conversion to 9CDHRA) [5, 10] | 9CDHROL levels in serum, brain and liver after treatment [5, 10] | ATROL levels in cells after treatment ([6]; 10^−6M) | 9CDHROL levels in cells after treatment ([6]; 10^−6 M, 18 hours) | 9CBC in cells after treatment ([6]; 411 nm detection, retention time 26.1 min) | 9CDHBC peak in cells after treatment ([6]; UV detection at 366 nm, retention time 25.1 min) | conversion to 9CDHRA ([6]; data not shown) | sucrose preference (anhedonia) [7] | 9CDHRA levels in cells after treatment (metabolism / accumulation) ([8]; 10^−6M, n=3) | precursor substrate of 9CDHROL ([8]; in vitro) | stability of the isolated product [9] |
| --- | --- | --- | --- | --- | --- | --- | --- | --- | --- | --- | --- | --- | --- | --- | --- | --- | --- |
| lower affinity | bind to all RAR LBD isotypes | CC1=C(/C=C/C(C)=C\C=C\[C@@H](C)CC(=O)O)C(C)(C)CCC1 [(S)-9CDHRA, (9Z,13S)-13,14-Dihydroretinoic Acid] | about 80% | induced the expression of genes |  |  |  |  |  |  |  |  |  |  |  |  |  |
|  |  | CC1=C(/C=C/C(C)=C\C=C\[C@H](C)C/C=C/C=C(C)/C=C/C=C(C)/C=C/C2=C(C)CCCC2(C)C)C(C)(C)CCC1 (stereo in doubt) [9CDHBC, (R)-9-cis-13,14-Dihydro-β,β-carotene] |  |  | decreased such immobility; also recorded: efficiently normalised immobility time | no metabolic conversion | moderate but significant increase | did not increase | a low conversion or induced increase | increases; also recorded: moderately | no 9CBC could be detected | even higher peak was conclusively detected | not converted to 9CDHRA | prevented; also recorded: Anhedonia was abolished | not converted to 9CDHRA | excellent precursor substrates | very unstable and easily degraded |

From patent publication US12029715B2, “Precursor compounds for providing retinoids of the vitamin A5 pathway and uses thereof” (UNIVERSITY OF DEBRECEN, priority 2015, dated 2024)
